A word on the IC50: it is the concentration that gives 50% inhibition. Broadly, the CC50 is the concentration at which the toxic effect on the cells reaches its halfway point.

These results are taken from PMC10383573, “New Imadazopyrazines with CDK9 Inhibitory Activity as Anticancer and Antiviral: Synthesis, In Silico, and In Vitro Evaluation Approaches” (Pharmaceuticals, 2023).

In one data set the test system is CDK2. Conditions: new-generation CDK9 inhibitors; ref [21] (Atuveciclib), [32] (BAY-1251152); cited from earlier work.
For data set [1], the system named is six breast cancer cell lines. To be noted: read-out: Cytotoxicity IC50; average of six breast cancer cell lines; ref [38],[39]; cited from earlier work.
A further data set concerns three cancer cell lines. To be noted: average of three cancer cell lines, ref [40], cited from earlier work.
Data set [2] has as its target T1, CDK9 (Homo sapiens, UniProt P50750). Also on record: purchased BPS Biosciences (San Diego, CA). To be noted: compound 2 of Figure 1; ref [40]; cited from earlier work.
The test system of the next data set is MCF7 cancer cells. Description: MTT cytotoxicity assay, MCF7. To be noted: Homo sapiens, 48 h, means (SD) of three trials. Format: cell-based. The procedure: (§1) The cytotoxicity effect of the new compounds was assessed in an MTT assay against chronic myelogenous leukemia (K652), colorectal (HCT116), and breast (MCF7) cancer cell lines. […] The data is presented in Table 4 as IC50 values (in µM).
(§2) Cells were obtained from American Type Culture Collection. The cell culture DMEM was obtained from Life Technologies and Invitrogen and supplied with 10% FBS from Hyclone, 1% penicillin-streptomycin, and 10 µg/mL insulin from Sigma-Aldrich.
The MTT assay was used to monitor the in vitro cytotoxicity of our compounds. […] Then, the cells were incubated with 10% v/v reconstituted MTT at 37 °C for 3 h. The multiwell plates were then read using Wallac Victor2 1420 multilabel counter, and the absorbance was measured at a wavelength of 450 (ex) and 590 nm (em).

In another data set the test system is HCT116 cancer cells. Description: MTT cytotoxicity assay, HCT116. It is filed as cell-based. To be noted: Homo sapiens, HCT-116, 48 h, means (SD) of three trials. How it is done:
as §1, §2
(§3) The MTT assay was used to monitor the in vitro cytotoxicity of our compounds. […] Then, the cells were incubated with 10% v/v reconstituted MTT at 37 °C for 3 h.

The subject of a further data set is K652 cancer cells. Nature of the data set: MTT cytotoxicity assay, K652. It is filed as cell-based. To be noted: K652, 48 h, read-out: IC50 K652. The procedure: as §1, §2, §3
(In general: Formazan colour is commonly taken as a measure of viable cells.)

Data set [3] deals with MCF7, HCT116, and K652 cancer cells. Nature of the data set: MTT cytotoxicity assay, average of the three cell lines. Format: cell-based. The procedure:
as §1, §2, §3

A further data set deals with FHC normal cells. Nature of the data set: MTT assay against FHC normal cells. It is filed as cell-based. Conditions: for IC50: read-out: FHC IC50. How it is done: as §3
For data set [4], the system named is human Coronavirus (HCoV-229E). Description: 229E inhibitory assay (cytopathic inhibition effect). It is filed as cell-based, human Coronavirus 229E. To be noted: for IC50: read-out: IC50 229E inhibitory effect. How it is done: The antiviral effect of the compounds was examined in a human Coronavirus (HCoV-229E) inhibitory assay. The standard ribavirin (a well-established antiviral agent) was used as a positive control in this experiment.
The cytopathic inhibition effect was used to assess the antiviral and cytotoxicity of the compounds using a method described by Choi et al. (2009). Coronavirus 229E cells were used in this assay. The antiviral activity of the tested compounds was measured as a percentage using a method described by Pauwels et al.’s (1988) research. GraphPad Prism 5.0 software was used to analyze the results. Ribavirin was used as a positive standard in this assay, and DMSO was used as a negative standard.
Background: Cytopathic effects are the visible damage that an infection or toxin causes in cultured cells.

The target of data set [5] is T1, CDK9. Description: In vitro CDK9 kinase assay (BPS Biosciences kit).
Procedure: The in vitro kinase activity was measured using a CDK9 assay kit obtained from BPS Biosciences (San Diego, CA). The inhibitory effect of the tested compounds was assessed following the manufacturer’s instructions as indicated in the kit. GraphPad Prism 5.0 software was used to analyze the results.
Data set [6] in a line: Cytotoxicity on target cells in the antiviral assay. Conditions: target cells of the HCoV-229E antiviral assay.
A further data set concerns CDK5. Conditions: new-generation CDK9 inhibitors; ref [21]; cited from earlier work.
The test system of a further data set is CDK7. Conditions: new-generation CDK9 inhibitors; ref [21]; cited from earlier work.

Where two headings read alike, the source gives them in different places.

T1 sequence (P50750 whole entry): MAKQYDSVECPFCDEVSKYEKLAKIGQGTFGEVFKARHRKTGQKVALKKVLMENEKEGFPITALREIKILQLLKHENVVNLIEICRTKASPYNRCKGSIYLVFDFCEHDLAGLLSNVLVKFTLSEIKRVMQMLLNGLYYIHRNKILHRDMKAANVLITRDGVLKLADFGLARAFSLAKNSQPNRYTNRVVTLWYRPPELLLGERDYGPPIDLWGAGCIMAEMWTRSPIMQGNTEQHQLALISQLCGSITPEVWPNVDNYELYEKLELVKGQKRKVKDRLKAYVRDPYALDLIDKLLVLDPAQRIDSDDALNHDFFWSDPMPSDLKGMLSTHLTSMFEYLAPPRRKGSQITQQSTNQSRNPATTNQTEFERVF
T1 sequence (O60563 whole entry, further chain): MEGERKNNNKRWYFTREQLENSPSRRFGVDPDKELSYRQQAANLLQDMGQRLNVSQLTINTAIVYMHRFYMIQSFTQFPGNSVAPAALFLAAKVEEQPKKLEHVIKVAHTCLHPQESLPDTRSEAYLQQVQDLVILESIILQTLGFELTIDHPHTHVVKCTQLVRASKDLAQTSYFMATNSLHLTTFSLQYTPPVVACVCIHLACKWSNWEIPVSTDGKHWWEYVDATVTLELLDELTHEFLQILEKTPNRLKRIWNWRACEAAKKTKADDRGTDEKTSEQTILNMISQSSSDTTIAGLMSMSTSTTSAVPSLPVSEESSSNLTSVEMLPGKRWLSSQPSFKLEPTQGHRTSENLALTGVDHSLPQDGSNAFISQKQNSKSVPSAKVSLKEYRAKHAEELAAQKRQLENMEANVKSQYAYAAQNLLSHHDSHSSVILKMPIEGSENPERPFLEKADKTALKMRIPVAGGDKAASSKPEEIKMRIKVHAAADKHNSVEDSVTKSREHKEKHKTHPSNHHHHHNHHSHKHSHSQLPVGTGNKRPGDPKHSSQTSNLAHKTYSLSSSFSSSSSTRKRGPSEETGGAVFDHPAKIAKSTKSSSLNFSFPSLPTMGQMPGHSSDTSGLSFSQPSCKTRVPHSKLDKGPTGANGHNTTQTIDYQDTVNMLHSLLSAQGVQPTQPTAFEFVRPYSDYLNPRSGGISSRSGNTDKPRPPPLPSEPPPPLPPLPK

In the case of `COc1cc(F)ccc1-c1cc(Nc2cc(CS(C)(=N)=O)ccn2)ncc1F` (centres unmarked) [BAY-1251152], in the data set on CDK2, the IC50 is 2.92 µM.
For `Oc1ccc(-c2nc3cnccn3c2NCCc2ccccc2)cc1O` [Compound 1], the IC50 in data set [1] was 34.8 µM.
For “2-phenylimidazopyrazin-3-amine [Compound 2]”, in the data set on three cancer cell lines, the “Cytotoxicity IC50” value is on record as “single-digit”. Moreover, the IC50 in the data set with three cancer cell lines (read-out: Cytotoxicity IC50) is 6.66 µM. In addition, on CDK9 [2], the “CDK9 IC50” value is on record as “submicromolar” and the IC50 is 0.166 µM.
As for `CC(C)(C)Nc1c(-c2ccoc2)nc2cnccn12` [Compound 1a, N-(Tert-butyl)-2-(furan-3-yl) imidazo[1,2-a] pyrazin-3-amine], the IC50 was 2.85 ± 0.03 µM in the data set on MCF7 cancer cells; 21.6 ± 0.29 µM with HCT116 cancer cells; 13.4 ± 0.19 µM in the data set on K652 cancer cells; 12.6 µM in data set [3]; 58.6 ± 0.8 µM in the data set on FHC normal cells (MTT assay, normal noncancerous cells); 1060 µM in data set [4] (HCoV-229E, cytopathic effect inhibition). Further, the IC50 against CDK9 [5] worked out at 0.19 ± 0.003 µM. Also, in the data set with FHC normal cells (FHC versus HCT116), the “SI (Selectivity Index) HCT116” value came out at 2.7. Also, in the data set on FHC normal cells (FHC versus K652), the “SI (Selectivity Index) K652” value is 4.3. In addition, the “SI (Selectivity Index) MCF7” value with FHC normal cells (FHC versus MCF7) worked out at 20.5. The “SI selectivity index (CC50/IC50)” value in data set [4] (HCoV-229E) is reported as 1.25. This compound came in with a CC50 in data set [6] of 1320 µM.
Consider `c1ccc(CNc2c(-c3ccoc3)nc3cnccn23)cc1` [Compound 1c, N-Benzyl-2-(furan-3-yl) imidazo[1,2-a]pyrazin-3-amine], for which the IC50 with MCF7 cancer cells was found to be 17.4 ± 0.34 µM; in the data set with HCT116 cancer cells, 16.4 ± 0.69 µM; with K652 cancer cells it was 24.8 ± 0.61 µM; in [3] it was 19.5 µM; in the data set with FHC normal cells it was 61.7 ± 0.96 µM; in [4], 516 µM. On CDK9 [5], this compound came in with an IC50 of 0.46 ± 0.008 µM. In data set [6], this compound displayed a CC50 of 653 µM.
For `COc1cc(F)ccc1-c1ncnc(Nc2cccc(C[S@](C)(=N)=O)c2)n1` [Atuveciclib], the IC50 is 1 µM in the data set with CDK2, 1.6 µM with CDK5 and above 10 µM with CDK7.
